Common to all, as to assay: DTP human tumour cell line panel, 48 h
The subject of test [1] is HCT-15 colon.
Test [2] relates to UO-31 renal.
Test [3] relates to NCI-H460 lung.
Test [4] concerns SNB-19 CNS.
Test [5] deals with MDA-MB-231 breast.
The subject of test [6] is T-47D breast.
In test [7] the test system is MALME-3M melanoma.
The subject of test [8] is CAKI-1 renal.
Test [9] has as its system SK-MEL-28 melanoma.
In test [10] the test system is A549 NSCLC.

Several values for one entry are separate records, joined by “and”; a condition that tells them apart may be missing. Identical values can stand only once.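 Exposure lasted 48 hours, with cells grown in 96-well plates and compounds tested at five concentrations. Here, GI50 denotes the concentration required for 50% inhibition of growth. The concentration for full growth arrest is given as TGI.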

Consider `CCCCCc1c(C)[nH]c(/C=C2\N=C(c3ccc[nH]3)C=C2Oc2ccc(OC)cc2)c1C`, for which the concentration for 50% growth inhibition (GI50) (commonly the concentration giving 50% growth inhibition) in [1] is 113 nM; in [2], 151 nM and 71.2 nM; in [3], 85 nM and 38 nM; in test [4], 440 nM and 98 nM; in test [5], 83.3 nM and 11.7 nM; in test [6] it was 193 nM and 29.5 nM. The GI50 was 262 nM and 74.4 nM in test [7]; 136 nM and 36.3 nM in [8]; 231 nM and 51.2 nM in test [9]; 33.9 nM in test [10]. Also, the TGI (in general, the concentration at which net growth stops) in [1] is 759 nM; in test [2] it was 313 nM and 232 nM; in test [3] it was 1170 nM; in test [4], 1990 nM; in test [6], 968 nM and 1240 nM; in test [7], 1340 nM and 261 nM. The TGI in test [8] was 449 nM and 333 nM; in test [9], 904 nM and 281 nM; in [10] it was 165 nM.
With `O=C(CCCCCn1c2ccccc2c2c3c(c4c5ccccc5[nH]c4c21)C(=O)N(O)C3=O)N1CCOCC1`, the GI50 in [1] was 2670 nM; in test [2], 1600 nM; in test [3], 2160 nM; in test [4], 3050 nM; in test [5], 2160 nM; in [6] it was 2610 nM. Moreover, the GI50 was 2260 nM in test [7], 2130 nM in test [8], 2320 nM in [9] and 4220 nM in test [10]. Further, the concentration for total growth inhibition (TGI) amounted to 8320 nM in test [1]; 4280 nM in test [2]; 4690 nM in test [3]; 36800 nM in test [4]; 5870 nM in [5]; 7890 nM in [6]. The TGI in test [7] stood at 6340 nM; in [8], 4810 nM; in test [9], 5400 nM; in test [10], 24000 nM.
For the compound `COc1ccc(-n2cc(-c3ccc(Cl)cc3)[nH]c2=S)cc1Cl`, the GI50 in test [1] is more than 100000 nM; in test [2], 19100 nM; in test [3] it was 50500 nM; in test [4], 20100 nM; in [5], 22100 nM; in [6], 18400 nM. Moreover, the GI50 in [7] is more than 100000 nM; in test [8], 24300 nM; in test [9] it was 36500 nM; in [10] it was 46600 nM. Besides, the TGI in test [1] was more than 100000 nM; in [2] it was 47800 nM; in [3], more than 100000 nM; in test [4] it was 55000 nM; in test [5], 82200 nM; in [6], more than 100000 nM. Besides, the TGI is more than 100000 nM in test [7], 56700 nM in test [8], more than 100000 nM in test [9] and more than 100000 nM in test [10].
Regarding `COc1ccc(CNCCN2C(=O)c3ccc4c5c(ccc(c35)C2=O)C(=O)N(CCNCc2ccc(OC)cc2)C4=O)cc1`, the concentration for 50% growth inhibition (GI50) in test [1] is 179 nM; in [2], 501 nM; in test [3] it was 250 nM; in test [4], 230 nM; in test [5], 294 nM; in test [6] it was 306 nM. The concentration for 50% growth inhibition (GI50) is 123 nM in [7], 1040 nM in test [8], 1210 nM in test [9] and 329 nM in test [10]. Also, the concentration for total growth inhibition (TGI) in test [1] amounted to 432 nM; in test [2] it was 1980 nM; in [3], 943 nM; in test [4] it was 717 nM; in test [5], 1130 nM; in test [6], 1420 nM. Moreover, the concentration for total growth inhibition (TGI) came out at 269 nM in test [7], 3380 nM in test [8], 2560 nM in test [9] and 1280 nM in test [10].
`NC(=O)NC1=NCCC(=O)N1CCc1c[nH]c2ccccc12`: the TGI in test [1] was determined as 73000 nM; in test [2], 31800 nM; in [3] it was 39500 nM; in test [4], 54600 nM; in test [5], 29400 nM; in test [6] it was 65500 nM. Also, the TGI in test [7] is 36900 nM; in [8] it was 6540 nM; in test [9] it was 41200 nM; in test [10] it was 54800 nM.
Consider `NS(=O)(=O)OC[C@H]1O[C@@H](n2cnc3c(N[C@H]4CCc5ccccc54)ncnc32)[C@H](O)[C@@H]1O`, for which the GI50 is 857 nM in [1]; 1410 nM in test [2]; 408 nM in test [3]; 90.2 nM in [4]; 470 nM in test [5]; 156 nM in test [6]. Further, the GI50 in test [7] was 195 nM; in test [8] it was 54 nM; in test [9] it was 47 nM; in test [10] it was 871 nM. In addition, the concentration for total growth inhibition (TGI) in test [1] is 7140 nM; in [2], 2880 nM; in test [3] it was 2110 nM; in test [4], 2050 nM; in [5] it was 2920 nM; in test [6], 1410 nM. In addition, the TGI was 447 nM in test [7], 181 nM in [8], 276 nM in [9] and 3000 nM in test [10].
Turning to `COC1=C(NC(C)=O)C(=O)c2nc3n(c2C1=O)CCC3`, the total growth inhibition concentration (TGI) is 53400 nM in [1]; 47100 nM in [2]; more than 76000 nM in test [3]; 67600 nM in test [4]; 27100 nM in test [5]; 72700 nM in [6]. Also, the TGI was 34800 nM in test [7], 32800 nM in [8], 32900 nM in test [9] and more than 69900 nM in test [10].

The record behind these values is PubChem BioAssay (NCI).
